The values below come from ChEMBL document CHEMBL4725332, “The design of a novel near-infrared fluorescent HDAC inhibitor and image of tumor cells” (Bioorg Med Chem, 2020).

Each structure is given as a SMILES string. pIC50: −log10 of the molar value. The source made the active and inactive calls. The calls are words filed in the database; no cut-off is given here.

Data set [1] deals with T1, Protein deacetylase HDAC6 (Homo sapiens, UniProt Q9UBN7).
T1 sequence (Q9UBN7 whole entry): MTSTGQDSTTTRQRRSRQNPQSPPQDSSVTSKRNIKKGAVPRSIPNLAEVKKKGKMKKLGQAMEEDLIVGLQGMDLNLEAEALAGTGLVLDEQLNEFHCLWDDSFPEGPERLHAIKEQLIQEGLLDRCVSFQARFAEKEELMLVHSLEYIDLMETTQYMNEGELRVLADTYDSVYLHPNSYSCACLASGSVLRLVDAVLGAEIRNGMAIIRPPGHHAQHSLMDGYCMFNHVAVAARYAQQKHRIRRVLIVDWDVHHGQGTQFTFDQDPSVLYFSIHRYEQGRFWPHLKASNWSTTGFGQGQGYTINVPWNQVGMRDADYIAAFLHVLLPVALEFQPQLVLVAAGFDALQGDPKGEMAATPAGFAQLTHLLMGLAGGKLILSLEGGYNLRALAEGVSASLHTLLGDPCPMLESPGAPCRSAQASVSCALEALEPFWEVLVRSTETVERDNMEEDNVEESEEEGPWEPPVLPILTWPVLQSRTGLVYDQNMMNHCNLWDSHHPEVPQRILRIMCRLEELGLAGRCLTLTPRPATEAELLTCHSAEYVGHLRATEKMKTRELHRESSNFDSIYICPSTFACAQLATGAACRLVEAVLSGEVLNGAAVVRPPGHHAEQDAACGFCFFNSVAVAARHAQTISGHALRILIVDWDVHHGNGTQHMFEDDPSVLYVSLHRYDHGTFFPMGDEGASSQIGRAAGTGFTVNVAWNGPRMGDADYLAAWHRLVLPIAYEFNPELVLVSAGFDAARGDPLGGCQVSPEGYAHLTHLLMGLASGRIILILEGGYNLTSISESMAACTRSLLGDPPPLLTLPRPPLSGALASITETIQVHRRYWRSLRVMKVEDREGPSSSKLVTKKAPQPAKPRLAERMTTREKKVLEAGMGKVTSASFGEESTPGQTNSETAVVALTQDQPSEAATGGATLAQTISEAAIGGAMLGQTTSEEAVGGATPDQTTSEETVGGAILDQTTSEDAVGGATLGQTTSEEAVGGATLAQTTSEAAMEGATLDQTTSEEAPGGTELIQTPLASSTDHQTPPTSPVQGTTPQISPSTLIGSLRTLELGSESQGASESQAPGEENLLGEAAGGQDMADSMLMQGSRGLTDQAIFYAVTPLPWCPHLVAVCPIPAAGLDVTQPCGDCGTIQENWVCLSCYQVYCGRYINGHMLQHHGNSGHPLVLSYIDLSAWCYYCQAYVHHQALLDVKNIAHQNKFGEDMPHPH
Briefly: Inhibition of human recombinant HDAC6 expressed in baculovirus infected High5 insect cells using Boc-Lys(eacety1)-AMC as substrate incubated for 3 hrs measured after 30 mins by microplate reader based spectrophotometric analysis. Also noted: species or system BTI-TN-5B1-4.

Data set [2] has as its target Histone deacetylase 1 (Homo sapiens, UniProt Q13547). Briefly: Inhibition of human recombinant HDAC1 expressed in baculovirus infected High5 insect cells using Ac-Lys-Tyr-Lys(e-acetyl)-AMC as substrate incubated for 24 hrs measured after 30 mins by microplate reader based spectrophotometric analysis. Also noted: species or system BTI-TN-5B1-4.
Data set [3] in a line: Drug uptake in human Hela cells assessed as increased fluorescence intensity at 5 to 25 uM for 1 to 24 hrs by fluorescence imaging analysis. In kind it is ADME, cell-based. The following applies: dose 1-25 µM, time 1-24 hrs.
Data set [4] can be described thus: Emission property of the compound assessed as maximum wavelength at 5 uM under pH condition 7.4 at excitation wavelength by fluorescence spectrophotometric method. Type of data set: physicochemical.
A short description of data set [5]: Drug uptake in human MDA-MB-231 cells assessed as increased fluorescence intensity at 5 uM for 1 to 24 hrs by fluorescence imaging analysis. Type of data set: ADME, cell-based. The note with it: mda-mb-231, 25 µM, time 1-24 hrs.
Data set [6] deals with HeLa. Briefly: Antiproliferation activity against human Hela cells assessed as reduction in cell viability incubated for 72 hrs by MTT assay. In kind it is functional, cell-based.
Data set [7] deals with MDA-MB-231. Briefly: Antiproliferation activity against human MDA-MB-231 cells assessed as reduction in cell viability incubated for 72 hrs by MTT assay. Type of data set: functional, cell-based. (In general: Formazan colour is commonly taken as a measure of viable cells.)
Data set [8] in a line: Emission property of the compound assessed as fluorescence at 5 uM under acidic condition at pH 4 by fluorescence spectrophotometric method. Type of data set: physicochemical. The following applies: pH 4, 5 µM.
Data set [9] has as its target Histone deacetylase 3 (Homo sapiens, UniProt O15379). Briefly: Inhibition of human recombinant HDAC3 expressed in baculovirus infected High5 insect cells using Ac-Lys-Tyr-Lys(e-acetyl)-AMC as substrate incubated for 24 hrs measured after 30 mins by microplate reader based spectrophotometric analysis. Also noted: species or system BTI-TN-5B1-4.
Data set [10] can be described thus: Drug uptake in human MDA-MB-231 cells assessed as decrease in fluorescence intensity at 25 uM for 1 to 24 hrs by fluorescence imaging analysis. Type of data set: ADME, cell-based. The following applies: mda-mb-231, 25 µM, time 1-24 hrs.
Data set [11] can be described thus: Absorption property of the compound assessed as maximum absorption wavelength at 5 uM under pH condition 7.4 by fluorescence spectrophotometric method. In kind it is physicochemical.
The nature of data set [12]: Chemical stability of compound in PBS buffer assessed as drug degradation at 37 degree C. In kind it is physicochemical.

Chain of Histone deacetylase 3 (O15379 whole entry): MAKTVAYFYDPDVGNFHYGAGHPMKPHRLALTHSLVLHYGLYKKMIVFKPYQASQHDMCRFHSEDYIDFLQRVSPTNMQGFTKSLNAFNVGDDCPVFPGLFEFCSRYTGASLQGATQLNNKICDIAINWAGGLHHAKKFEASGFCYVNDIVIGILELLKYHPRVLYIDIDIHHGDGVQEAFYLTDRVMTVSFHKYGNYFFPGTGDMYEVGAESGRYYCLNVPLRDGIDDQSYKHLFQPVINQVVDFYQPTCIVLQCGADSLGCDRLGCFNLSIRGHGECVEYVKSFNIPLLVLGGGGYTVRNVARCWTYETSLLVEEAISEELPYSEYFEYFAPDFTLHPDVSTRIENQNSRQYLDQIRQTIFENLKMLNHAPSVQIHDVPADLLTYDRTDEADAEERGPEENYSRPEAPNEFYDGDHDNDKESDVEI
Chain of Histone deacetylase 1 (Q13547 whole entry): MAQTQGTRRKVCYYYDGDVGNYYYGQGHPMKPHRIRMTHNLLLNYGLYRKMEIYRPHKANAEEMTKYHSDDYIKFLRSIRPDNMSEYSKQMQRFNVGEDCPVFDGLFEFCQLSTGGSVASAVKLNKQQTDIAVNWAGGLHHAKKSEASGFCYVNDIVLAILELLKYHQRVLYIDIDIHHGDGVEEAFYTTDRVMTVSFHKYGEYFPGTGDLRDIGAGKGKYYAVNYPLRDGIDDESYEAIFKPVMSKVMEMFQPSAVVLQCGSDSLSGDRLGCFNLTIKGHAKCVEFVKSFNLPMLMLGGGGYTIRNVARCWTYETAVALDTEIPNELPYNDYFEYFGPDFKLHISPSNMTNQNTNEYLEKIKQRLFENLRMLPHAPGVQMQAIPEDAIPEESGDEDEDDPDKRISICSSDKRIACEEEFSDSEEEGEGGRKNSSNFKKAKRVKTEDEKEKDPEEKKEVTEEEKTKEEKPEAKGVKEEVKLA

Take `CC[N+]1=C(/C=C/C2=C3Oc4cc(O)cc(OCCCCCCCC(=O)O)c4C=C3CCC2)C(C)(C)c2ccccc21.[I-]`: the negative logarithm of the IC50 (pIC50) (usually −log10 of the IC50, conventionally taken in molar units) was 4.86 in [1], 5.01 in [2] and 4.96 in [9]. In addition, the results for the Drug uptake entry in [3], in data set [5] and in data set [10] were “Not Active”, “Not Active” and “Active”, respectively. For the same compound, the Activity in data set [4] was 723 nm; in [8], “Not Active”; in [11] it was 707 nm. Further, the result in data set [6] and in [7] was inactive.
Regarding `CC[N+]1=C(/C=C/C2=C3Oc4cc(O)cc(OCCCCCCCC(=O)NO)c4C=C3CCC2)C(C)(C)c2ccccc21.[I-]`, the Stabilty result in data set [12] is “Stable”. Also, the pIC50 in data set [1] is 6.72; in [2], 6.44; in data set [6] it was 5.23; in data set [7] (MDA-MB-231, 72 h), 5.04; in data set [9], 6.24. In addition, the Drug uptake entry in data set [3], in [5] and in data set [10] was “Active” each time. For the same compound, the Activity in [4] is listed as 723 nm; in data set [8] it was “Not Active”; in [11] it was 707 nm.
